Measurements: ChEMBL document CHEMBL1122620, “Inhibition of renin by substrate analogue inhibitors containing the olefinic amino acid 5(S)-amino-7-methyl-3(E)-octenoic acid” (J Med Chem, 1984)
Where a SMILES comes first, the peptide text is derived from it.

Columns and labels:
[1] = target: T1, Renin (Homo sapiens, UniProt P00797); assay: Compound was evaluated for competitive Renin inhibitory activity against human amniotic renin; Competitive
T1 sequence (P00797 whole entry): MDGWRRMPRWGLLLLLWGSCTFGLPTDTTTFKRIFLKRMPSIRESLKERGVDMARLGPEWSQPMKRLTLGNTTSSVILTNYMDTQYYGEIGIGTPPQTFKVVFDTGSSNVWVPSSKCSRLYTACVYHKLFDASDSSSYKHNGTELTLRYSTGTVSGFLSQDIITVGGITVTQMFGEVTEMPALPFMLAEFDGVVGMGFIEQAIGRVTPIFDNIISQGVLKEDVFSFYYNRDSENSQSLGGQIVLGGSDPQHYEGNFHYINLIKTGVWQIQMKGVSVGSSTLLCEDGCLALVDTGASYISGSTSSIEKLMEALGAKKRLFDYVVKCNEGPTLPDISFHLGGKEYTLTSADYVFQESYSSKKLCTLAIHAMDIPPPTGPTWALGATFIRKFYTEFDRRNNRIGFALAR

[2] = target: Renin (Sus scrofa); assay: Compound was evaluated for Non-competitive Renin inhibitory activity against hog kidney renin; Non competitive

| Ki [1] [µM] | Ki [2] [µM] | Structure (SMILES) |
| --- | --- | --- |
| 1000 |  | COC(=O)[C@H](Cc1ccccc1)NC(=O)[C@@H](NC(=O)CNC(=O)[C@@H](N)CC(C)C)C(C)C (H-LGVF-OMe) |
|  | 500 | COC(=O)[C@H](Cc1ccccc1)NC(=O)[C@@H](NC(=O)[C@H](CC(C)C)NC(=O)[C@@H](N)CC(C)C)C(C)C (H-LLVF-OMe) |
